# Tests used:
# [1] = target: T1, human sodium channels Nav 1.8 (Homo sapiens, UniProt Q9Y5Y9); experiment: Automated whole-cell voltage-clamp (ScreenPatch 384P) sodium current block, Nav 1.8; type: cell-based; conditions: CHO cells stably expressing human Nav 1.8; holding -100 mV, inactivation step -40 mV for 8 seconds, test step 10 mV (TP1A); exposure at least five minutes, room temperature; mean where tested in two or more assays; read-out: Nav1.8 IC50
# T1 construct: expressed in transfected cells
# T1 sequence (Q9Y5Y9 whole entry): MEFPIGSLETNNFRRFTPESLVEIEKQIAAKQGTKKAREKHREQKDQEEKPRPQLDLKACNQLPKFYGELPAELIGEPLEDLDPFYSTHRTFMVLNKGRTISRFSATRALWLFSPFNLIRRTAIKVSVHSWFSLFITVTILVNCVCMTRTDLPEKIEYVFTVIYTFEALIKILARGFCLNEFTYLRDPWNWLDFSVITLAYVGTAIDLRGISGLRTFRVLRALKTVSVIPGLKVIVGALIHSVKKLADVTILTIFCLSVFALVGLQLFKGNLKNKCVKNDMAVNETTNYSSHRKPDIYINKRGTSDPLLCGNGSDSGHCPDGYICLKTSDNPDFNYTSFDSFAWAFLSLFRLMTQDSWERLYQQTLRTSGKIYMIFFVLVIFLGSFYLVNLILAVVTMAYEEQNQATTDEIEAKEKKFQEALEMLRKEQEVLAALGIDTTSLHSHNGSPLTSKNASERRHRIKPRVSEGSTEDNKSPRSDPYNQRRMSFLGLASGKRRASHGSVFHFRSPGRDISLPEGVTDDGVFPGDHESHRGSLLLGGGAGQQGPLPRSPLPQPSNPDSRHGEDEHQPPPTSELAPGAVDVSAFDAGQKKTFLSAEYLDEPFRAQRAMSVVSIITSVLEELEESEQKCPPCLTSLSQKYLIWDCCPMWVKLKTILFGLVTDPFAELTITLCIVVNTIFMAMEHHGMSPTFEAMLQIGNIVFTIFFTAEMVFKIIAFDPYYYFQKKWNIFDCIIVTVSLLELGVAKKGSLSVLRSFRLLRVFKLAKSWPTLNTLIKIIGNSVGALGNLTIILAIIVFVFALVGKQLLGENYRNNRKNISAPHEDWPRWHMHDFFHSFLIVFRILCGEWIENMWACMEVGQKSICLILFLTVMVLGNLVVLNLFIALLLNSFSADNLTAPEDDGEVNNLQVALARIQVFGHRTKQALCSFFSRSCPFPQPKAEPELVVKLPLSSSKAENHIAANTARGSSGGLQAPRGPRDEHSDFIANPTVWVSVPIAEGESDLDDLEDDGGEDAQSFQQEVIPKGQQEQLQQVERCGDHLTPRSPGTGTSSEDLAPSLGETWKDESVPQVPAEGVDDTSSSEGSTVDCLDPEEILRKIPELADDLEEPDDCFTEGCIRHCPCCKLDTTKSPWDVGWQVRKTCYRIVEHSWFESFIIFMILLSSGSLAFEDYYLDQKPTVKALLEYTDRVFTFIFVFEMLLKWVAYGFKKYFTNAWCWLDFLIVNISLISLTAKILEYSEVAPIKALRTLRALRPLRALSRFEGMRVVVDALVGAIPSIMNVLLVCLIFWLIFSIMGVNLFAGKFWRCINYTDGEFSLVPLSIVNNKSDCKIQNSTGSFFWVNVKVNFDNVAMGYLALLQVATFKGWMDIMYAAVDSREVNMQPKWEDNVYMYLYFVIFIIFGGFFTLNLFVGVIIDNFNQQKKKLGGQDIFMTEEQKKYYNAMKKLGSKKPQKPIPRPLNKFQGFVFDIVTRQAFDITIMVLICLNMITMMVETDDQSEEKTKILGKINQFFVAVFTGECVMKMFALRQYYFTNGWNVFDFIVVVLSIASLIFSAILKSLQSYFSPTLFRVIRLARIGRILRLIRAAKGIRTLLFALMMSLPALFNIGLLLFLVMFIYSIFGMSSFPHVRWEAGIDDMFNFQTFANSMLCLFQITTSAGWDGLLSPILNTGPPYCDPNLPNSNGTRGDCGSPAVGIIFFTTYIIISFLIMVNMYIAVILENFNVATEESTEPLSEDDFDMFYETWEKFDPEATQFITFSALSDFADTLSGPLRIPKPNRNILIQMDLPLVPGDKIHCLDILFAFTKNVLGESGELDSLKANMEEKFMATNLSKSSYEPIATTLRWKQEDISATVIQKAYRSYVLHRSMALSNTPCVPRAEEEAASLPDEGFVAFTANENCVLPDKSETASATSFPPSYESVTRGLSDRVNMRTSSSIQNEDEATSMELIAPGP
# Procedure: (§1) Biological assays were performed on Chinese hamster ovary (CHO) cells that express human sodium channels Nav 1.8 or Nav 1.7 in a stable manner.
# (§2) The experimental protocol voltage-clamp using the whole cell configuration was established on the automated ScreenPatch® 384P platform (SP384PE, Nanion Technologies, Livingston, NJ) and the results were recorded with a Nanion 384-well Patch Clamp chip (NPC) (Nanion Technologies, Livingston, NJ).
# (§3) Compounds of Formula Ia and Formula Ib were diluted in eight concentrations in the extracellular solution composed of saline solution, buffered with HEPES (mM): NaCl, 137; KCl, 4; CaCl2, 3,8; MgCl2, 1; HEPES, 10; Glucose, 10; pH 7.4. The […], 50; CsF, 90; MgCl2, 5; EGTA, 5; HEPES, 10; pH 7.2. The duration of exposure of each compound with cells expressing Nav 1.7 or Nav 1.8 was at least five minutes, and the assays were performed at room temperature.
# (§4) The measurements of the sodium currents of Nav 1.8 and Nav 1.7 were obtained using the voltage protocol described below: A holding voltage of -100 mV was established followed by an inactivation voltage step at -40 mV for 8 seconds, followed by a step of -100 mV for 20 ms, followed by a 20 ms step for 10 mV for Nav 1.8 or 0 mV for Nav 1.7 (TP1A) before returning to the holding voltage of -100 mV.
# (§5) The protocol was repeated at a frequency of 0.05 Hz and the amplitude of the current was quantified throughout the recording of the TP1A phase. The variation in the amplitude of the peak current was evaluated according to the formula described below, after exposing the cells expressing the channels to each concentration of the different compounds: % Block = (1−(ITP1A,molecule/ITP1A,basal)×100%, [formula] wherein ITP1A,basal and ITP1A,molecule represent the peaks of sodium current input into TP1A before exposure to the compound and in the presence of the compound, respectively.
# (§6) Data were obtained by nonlinear regression (nonlinear least squares) with XLfit for Excel (Microsoft, Redmond, WA).
# (§7) The compounds were tested in at least one assay to obtain the value of CI50. For compounds that were tested in two or more assays, the results are described as the mean of the CI50 values.
# [2] = target: T2, human sodium channels Nav 1.7 (Homo sapiens, UniProt Q15858); experiment: Automated whole-cell voltage-clamp (ScreenPatch 384P) sodium current block, Nav 1.7; type: cell-based; conditions: CHO cells stably expressing human Nav 1.7; holding -100 mV, inactivation step -40 mV for 8 seconds, test step 0 mV (TP1A); exposure at least five minutes, room temperature; mean where tested in two or more assays; read-out: Nav1.7 IC50
# T2 construct: expressed in transfected cells
# T2 sequence (Q15858 whole entry): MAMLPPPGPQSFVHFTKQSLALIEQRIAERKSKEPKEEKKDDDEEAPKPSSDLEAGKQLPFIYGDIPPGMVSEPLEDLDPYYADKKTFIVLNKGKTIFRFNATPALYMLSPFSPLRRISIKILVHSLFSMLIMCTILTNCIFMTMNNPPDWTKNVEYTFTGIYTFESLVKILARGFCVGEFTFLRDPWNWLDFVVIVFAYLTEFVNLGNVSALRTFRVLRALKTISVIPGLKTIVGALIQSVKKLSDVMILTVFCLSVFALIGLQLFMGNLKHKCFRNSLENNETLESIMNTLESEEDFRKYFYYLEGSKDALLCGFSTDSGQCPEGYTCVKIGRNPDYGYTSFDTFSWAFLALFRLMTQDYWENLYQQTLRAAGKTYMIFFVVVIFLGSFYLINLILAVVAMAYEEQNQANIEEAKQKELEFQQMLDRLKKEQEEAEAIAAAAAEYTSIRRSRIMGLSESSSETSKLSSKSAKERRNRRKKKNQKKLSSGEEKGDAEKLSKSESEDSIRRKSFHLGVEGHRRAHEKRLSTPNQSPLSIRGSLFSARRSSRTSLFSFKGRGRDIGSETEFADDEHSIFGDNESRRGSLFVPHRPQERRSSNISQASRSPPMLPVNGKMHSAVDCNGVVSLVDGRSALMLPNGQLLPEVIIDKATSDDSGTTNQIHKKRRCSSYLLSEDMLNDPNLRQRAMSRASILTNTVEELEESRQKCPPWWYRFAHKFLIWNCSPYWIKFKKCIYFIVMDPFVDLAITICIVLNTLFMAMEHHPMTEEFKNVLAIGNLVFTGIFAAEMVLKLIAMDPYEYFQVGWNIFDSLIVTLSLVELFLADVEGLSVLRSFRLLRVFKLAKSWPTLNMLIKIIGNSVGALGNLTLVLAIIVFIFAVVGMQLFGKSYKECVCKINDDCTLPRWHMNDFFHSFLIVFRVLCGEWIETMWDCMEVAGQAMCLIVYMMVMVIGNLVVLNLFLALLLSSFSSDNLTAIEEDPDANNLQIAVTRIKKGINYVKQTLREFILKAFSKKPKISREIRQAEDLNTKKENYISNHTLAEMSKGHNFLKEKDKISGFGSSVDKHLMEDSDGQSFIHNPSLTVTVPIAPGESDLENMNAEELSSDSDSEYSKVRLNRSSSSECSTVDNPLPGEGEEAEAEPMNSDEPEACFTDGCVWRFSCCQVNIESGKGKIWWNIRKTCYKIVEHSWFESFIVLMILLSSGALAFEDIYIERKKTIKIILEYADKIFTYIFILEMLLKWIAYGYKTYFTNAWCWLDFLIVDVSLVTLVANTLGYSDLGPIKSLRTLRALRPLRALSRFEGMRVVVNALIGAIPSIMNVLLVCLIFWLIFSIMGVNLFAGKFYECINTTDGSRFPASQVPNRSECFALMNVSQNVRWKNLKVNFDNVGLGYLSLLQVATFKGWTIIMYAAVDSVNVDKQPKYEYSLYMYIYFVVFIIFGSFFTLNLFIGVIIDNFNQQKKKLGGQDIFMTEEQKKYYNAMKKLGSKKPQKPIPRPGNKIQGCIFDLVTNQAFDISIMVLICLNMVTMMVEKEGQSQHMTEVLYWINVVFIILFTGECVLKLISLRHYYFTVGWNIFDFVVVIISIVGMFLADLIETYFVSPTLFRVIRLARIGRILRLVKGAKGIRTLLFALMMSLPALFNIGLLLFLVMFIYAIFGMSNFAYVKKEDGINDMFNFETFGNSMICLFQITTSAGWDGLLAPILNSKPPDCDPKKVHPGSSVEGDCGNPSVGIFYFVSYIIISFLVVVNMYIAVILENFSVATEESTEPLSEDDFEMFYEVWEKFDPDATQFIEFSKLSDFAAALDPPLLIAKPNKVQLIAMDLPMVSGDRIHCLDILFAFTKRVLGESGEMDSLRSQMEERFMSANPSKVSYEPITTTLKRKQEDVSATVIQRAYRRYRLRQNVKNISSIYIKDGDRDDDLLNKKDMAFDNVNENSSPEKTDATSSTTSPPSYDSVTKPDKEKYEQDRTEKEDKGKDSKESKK
# Procedure: as §1, §2, §3, §4, §5, §6, §7
Structure (SMILES),IC50 [1] [nM],IC50 [2] [nM]
CCOc1ccc(-c2cncc(C(=O)Nc3nc4c(F)ccc(OC)c4[nH]3)n2)cn1 [compound 64],> 1000,> 1000
CCOc1ccc(-c2cncc(C(=O)Nc3cc4c(OC)cccc4[nH]3)n2)cn1 [compound 73],> 1000,> 1000
COc1ccc(-c2cncc(C(=O)NC[C@@H](O)c3cc(OC)cc(OC)c3)n2)cc1 [compound 55],< 500,> 1000
CCOc1ccc(-c2cncc(C(=O)Nc3cc4c(OC)ccc(F)c4[nH]3)n2)cn1 [compound 74],< 500,500 to 1000
COc1cnc(F)c(CCNC(=O)c2cncc(-c3ccc(C(C)(C)O)cc3)n2)c1 [compound 56],> 1000,> 1000
CCOc1ccc(-c2cncc(C(=O)N[C@H]3Cc4c(OC)cnc(F)c4C3)n2)cn1 [compound 83],> 1000,> 1000
CCOc1ccc(-c2cncc(C(=O)Nc3cn4c(OC)ccc(F)c4n3)n2)cn1 [compound 68],> 1000,> 1000
CCOc1ccc(-c2cncc(C(=O)NCCc3cccc(C(C)O)c3)n2)cn1 (stereo not shown) [compound 41],> 1000,> 1000
[2H]C([2H])([2H])Oc1ccc(-c2cncc(C(=O)NC[C@@H](O)c3cc(OC)cc(OC)c3)n2)cc1 [compound 93],< 500,> 1000
COc1cnc(F)c(CCNC(=O)c2cncc(-c3ccc(OC(F)F)nc3)n2)c1 [compound 51],> 1000,> 1000
CCOc1ccc(-c2cncc(C(=O)N[C@H]3CCc4c(OC)ccc(F)c4C3)n2)cn1 [compound 78],< 500,> 1000
COc1cnc(F)c(CCNC(=O)c2cncc(-c3ccc(OC(F)F)cc3)n2)c1 [compound 50],> 1000,> 1000
CCOc1ccc(-c2cc(C(=O)NCCc3cc(OC)cnc3F)ccn2)cn1 [compound 109],> 1000,> 1000
CCOc1ccc(-c2cncc(C(=O)NCc3ncc4ccc(OC)cn34)n2)cn1 [compound 85],> 1000,> 1000
CCOc1ccc(-c2cc(C(=O)NCCc3cc(OC)cnc3F)cnn2)cn1 [compound 111],> 1000,> 1000
CCOc1ccc(-c2cncc(C(=O)NC[C@@H](N)c3cc(OC)cc(OC)c3)n2)cc1 [compound 27],< 500,< 500
CCOc1ccc(-c2cncc(C(=O)N[C@H]3Cc4c(F)ccc(OC)c4C3)n2)cn1 [compound 82],500 to 1000,> 1000
CCOc1ccc(-c2cncc(C(=O)NC[C@H](N)c3cc(OC)cc(OC)c3)n2)cc1 [compound 26],> 1000,> 1000
CCOc1ccc(-c2cc(C(=O)NCCc3cc(OC)cnc3F)cnn2)cc1 [compound 100],> 1000,> 1000

Structure (SMILES),IC50 [1] [nM],IC50 [2] [nM]
CCOc1ccc(-c2cncc(C(=O)N[C@@H]3CCc4c(OC)ccc(F)c4C3)n2)cn1 [compound 79],500 to 1000,500 to 1000
CCOc1ccc(-c2cncc(C(=O)NCCc3cc(OC)cc(C(C)O)c3)n2)cn1 (stereo not shown) [compound 40],> 1000,> 1000
[2H]C([2H])([2H])Oc1ccc(-c2cncc(C(=O)NCCc3cc(OC)cc(OC)c3)n2)cc1 [compound 95],< 500,> 1000
COc1cc(CCNC(=O)c2cncc(-c3ccc(OC(F)F)cc3)n2)cc(OC)c1 [compound 2],< 500,500 to 1000
CCOc1ccc(-c2cncc(C(=O)NCCc3cc(OC)cnc3F)c2)cn1 [compound 113],> 1000,> 1000
CCOc1ccc(-c2ccnc(C(=O)NCCc3cc(OC)cnc3F)c2)cn1 [compound 114],> 1000,> 1000
CCOc1ccc(-c2cncc(C(=O)NCCc3cc(OC)cnc3F)c2)cc1 [compound 102],> 1000,> 1000
CCOc1ccc(-c2nccc(C(=O)NCCc3cc(OC)cnc3F)n2)cn1 [compound 110],> 1000,> 1000
CCOc1ccc(-c2cncc(C(=O)NC[C@@H](O)c3cc(OC)cc(OC)c3)n2)cc1 [compound 25],> 1000,> 1000
CCOc1ccc(-c2ccnc(C(=O)NCCc3cc(OC)cnc3F)n2)cc1 [compound 107],500 to 1000,> 1000
CCOc1ccc(-c2cnnc(C(=O)NCCc3cc(OC)cnc3F)c2)cn1 [compound 112],> 1000,> 1000
COc1cnc(F)c(CCNC(=O)c2cncc(-c3ccc(C(C)(C)O)nc3)n2)c1 [compound 57],> 1000,> 1000
CCOc1ccc(-c2cncc(C(=O)NCCc3cc(C(C)O)cnc3F)n2)cc1 (stereo not shown) [compound 14],> 1000,> 1000
CCOc1ccc(-c2cncc(C(=O)NCCc3cc(OC)cnc3F)n2)cn1 [compound 34],< 500,500 to 1000
CCOc1ccc(-c2cc(C(=O)NCCc3cc(OC)cnc3F)ccn2)cc1 [compound 104],> 1000,> 1000
CCOc1ccc(-c2cncc(C(=O)N(C)c3cc4c(F)ccc(OC)c4[nH]3)n2)cn1 [compound 71],> 1000,> 1000
COc1cnc(F)c(CCNC(=O)c2cncc(-c3ccc(C(C)O)nc3)n2)c1 (stereo not shown) [compound 58],> 1000,> 1000
CCOc1ccc(-c2cccc(C(=O)NCCc3cc(OC)cnc3F)n2)cn1 [compound 108],> 1000,> 1000
CCOc1ccc(-c2cncc(C(=O)NCCc3cc(OC)cnc3F)n2)cc1 [compound 16],< 500,> 1000

# From patent EP4660185A1, “NAV1.7- AND/OR NAV1.8-INHIBITING AMIDES, PROCESSES FOR THE PREPARATION THEREOF, COMPOSITIONS, USES, METHODS FOR TREATMENT USING SAME, AND KITS” (Eurofarma Laboratórios S.A., priority 2023, dated 2024)
